{
  "source": "patent EP4076431B1",
  "about": "“COMPOSITION AND METHOD FOR THE PREVENTION AND TREATMENT OF TYPE 2 DIABETES” (Vector Vitale IP LLC, priority 2019, dated 2021)",
  "key": {"[1]": {"test": "Glucose tolerance test", "settings": "dose 5 mg/kg in a volume of 2 ml, individual animals 1-5", "protocol": "Animals that had access only to water 16 hours before the start of the experiment were used in the glucose tolerance test. Rats were anesthetized with intraperitoneal injection of sodium thiopental at a dose of 40 mg/kg. 5 animals were used within the same experimental group. Basal levels of glycaemia were determined in rats, after which the animals were fed 2 ml of aqueous glucose solution at a dose of 3 g/kg. The concentration of glucose was determined 60 minutes after the start of the experiment.\nA glucose tolerance test was performed to determine a potential effect of zinc isotope on the dynamics of glucose concentration in the blood flow. Experimental procedure: laboratory animals are given intragastric injections of either normal saline solution or zinc in saline solution (5 mg/kg) in a volume of 2 ml. After that, 60 minutes after the aforementioned injections, the basal level of glucose is measured and a glucose solution is injected in an amount of 3 g/kg in a volume of 2 ml using the same route of administration. The blood glucose levels are measured again 60 minutes after injecting the glucose solution."}, "[2]": {"test": "Accumulation of metals in liver and kidney tissues, intact rats", "assay_type": "in vivo", "settings": "day 1 and day 7 after discontinuation; intraperitoneal", "method": "The total kidney, liver and muscle homogenates were prepared as follows. Organ excision and homogenization were carried out at a temperature of 1-4°C. Homogenization of tissues was carried out in 50 mM Tris-HCl buffer (pH 7.4) which contained 140 mM NaCl, 1 mM EDTA. The volume of the used buffer in ml was 5 times larger than the mass of isolated organs in grams. The isolated liver was perfused with chilled saline (0.9% NaCl) via the portal vein using a syringe. The minced liver was transferred to a homogenizer with a finely ground Teflon pestle and homogenized in chilled buffer. An isolated pair of kidneys was perfused with chilled saline, released from adipose tissue and minced with scissors. The minced tissue was transferred to a homogenizer with a finely ground Teflon pestle and homogenized in chilled buffer. The total kidney and liver homogenates were centrifuged at 600 g for 15 minutes. The liquid was decanted after the mince settled down and was centrifuged again at 15,000 g for 15 minutes. These two procedures allowed us to get rid of nuclear and mitochondrial debris. Aliquots of the prepared homogenates were frozen in nitrogen (Rybalchenko V.K., Koganov M.M. Structure and function of membrane 1988. - 312 pp)."}, "[3]": {"tested_on": "IL-1", "test": "Cytokine profile, immunoenzyme method, obesity model: IL-1", "settings": "Table 7, serum", "protocol": "(§1) Adipose tissue was crushed using cold scissors then transferred to a homogenizer with a loose-fitting Teflon pestle. The tissue was homogenized using approximately 30 strokes of the pestle in cold homogenization buffer (50 mM Tris-HCl (pH 7.4) containing 130 mM NaCl). Primary homogenate thus obtained was centrifuged at 600 g for 15 minutes. The supernatant was carefully collected and re-centrifuged at 15,000 g for 15 minutes. The supernatant was then frozen and stored at -80°C until the experiments.\n(§2) The levels of insulin, interleukins and adipokines were determined using immunoenzyme method (Halenova TI et al. RSC Adv. 2016;6: 100046-55), which was carried out in microplates with a sorption capacity in accordance with the soluble protein test procedure. The antigen solution, previously diluted with 0.1 M NaHCOs buffer, pH 9.6, to a concentration of 10 µg/ml, was incubated in the plate wells for 12 hours at 4°C. Unbound material was removed by washing the wells three times with TBS buffer, first with 0.05% Tween-20, then without Tween-20. Non-specific binding sites were blocked by adding a solution of 5% skim milk or a solution of 1% bovine serum albumin to the plate wells and incubating them for 60 minutes at 37°C. […]\n(§3) The absorbance at a wavelength of 492 nm was measured using a µQuant microplate spectrophotometer (BioTek Instruments)."}, "[4]": {"tested_on": "TGF", "test": "Cytokine profile, immunoenzyme method, obesity model: TGF", "settings": "Table 7, serum", "protocol": "as §1, §2, §3"}, "[5]": {"tested_on": "IFN-γ", "test": "Cytokine profile, immunoenzyme method, obesity model: IFN-γ", "settings": "Table 7, serum", "protocol": "as §1, §2, §3"}, "[6]": {"tested_on": "IL-6", "test": "Cytokine profile, immunoenzyme method, obesity model: IL-6", "settings": "Table 7, serum", "protocol": "as §1, §2, §3"}, "[7]": {"test": "Anthropometric values and food consumption, high-fat diet induced obesity model", "settings": "Table 3", "description": "Before the start of the experiment, animals were maintained on a standard diet of the vivarium. To induce obesity in experimental animals, they were fed high-fat diet which consisted of standard feed (60%), lard (10%), chicken eggs (10%), sucrose (9%), peanuts (5%), dry milk (5%) and sunflower oil (1%) (1%) (see X. H. Shen et al., Exp. Biol. and Med. 235: 47-51 (2010)).\nAnimals in all groups were weighed once a week after an overnight fast. The amount of feed to be consumed by the animals was determined daily. At the end of a 10-week period of the development of obesity models, 24 hours after the last administration of the zinc isotope solution, animals were removed from their cages and decapitated.\nThe body mass index (BMI) (the ratio of body weight (g) to the square of body length (cm^2)) was calculated at the end of the experiment.\nAnimals with an initial weight of 195-205±10 g maintained on the standard diet of the vivarium before performing obesity models were used in the experiments. To induce obesity in experimental animals, they were fed high-fat diet which consisted of standard feed (60%), lard (10%), chicken eggs (10%), sucrose (9%), peanuts (5%), dry milk (5%) and sunflower oil (1%), Shen X. et al., Experimental Biology and Medicine. - 2010. - Nº 235. - P. 47-51.\nAnimals in all groups were weighed once a week after an overnight fast. The amount of feed to be consumed by the animals was determined daily.\nThe body mass index (BMI) (the ratio of body weight (g) to the square of body length (cm2)) was calculated at the end of the experiment."}, "[8]": {"test": "Blood glucose, streptozotocin-induced type I diabetes model, oral administration", "settings": "Table 22; streptozotocin diabetic rats; 800 µg of zinc per animal orally, 7 doses every other day; n = 10", "protocol": "Number of animals: 10 (males). Animals were housed in cages, 4 per cage, and provided ad libitum access to food and water. To induce diabetes in animals, each animal was given a single injection of streptozotocin solution at a dose of 6 mg per 100 g of animal weight dissolved in 10 mM citrate buffer (pH 4.5) intraperitoneally. The fasted animals were tested for sufficient levels of glycemia two days after induction of diabetes. Rats with blood glucose concentrations within the range >20 mmol/l were used in the experiments.\n24 hours later, 7 doses of the test substance were administered to the animals orally. Frequency of administration - every other day.\nDose of administration - 800 µg of zinc per animal.\nThe glucose concentration in whole blood was measured by the glucose oxidase method using a GlucoDr Auto AGM-4000 blood glucose meter (Allmedicus Co., Ltd., Korea). All procedures were performed according to the manufacturer's instructions\nType I experimental diabetes was induced by a single intraperitoneal injection of streptozotocin solution at a dose of 6 mg per 100 g of animal weight dissolved in 10 mM citrate buffer (pH 4.5). The rats of the control group were administered 10 mM citrate buffer (pH 4.5) by the aforementioned method. The whole blood glucose concentrations were measured two days after induction of diabetes in rats."}, "[9]": {"tested_on": "IL-4", "test": "Cytokine profile, immunoenzyme method, obesity model: IL-4", "settings": "Table 7, serum", "protocol": "as §1, §2, §3"}, "[10]": {"tested_on": "glycated hemoglobin", "test": "Glycated hemoglobin, streptozotocin-induced type I diabetes model", "settings": "Table 22; streptozotocin diabetic rats; 800 µg of zinc per animal orally, 7 doses; n = 10", "protocol": "The levels of glycated hemoglobin in whole blood of rats was measured spectrophotometrically in accordance with the established procedure. The assay was performed using a standard assay kit manufactured by Lachema (Czech Republic).\nThe method for glycated hemoglobin measurement is based on the fact that the stable form of glycohemoglobin (HbA1c) contains 1-deoxy-1-(N-valyl) fructose, which is dehydrated with phosphoric acid to form a colored complex with an absorption spectrum at 433 nm. Neither the labile form of glycohemoglobin nor fetal hemoglobin interferes with the determination of glycated hemoglobin.\nTotal hemoglobin was measured spectrophotometrically. […] The absorbance was read at a wavelength of 540 nm against the transforming solution. The total hemoglobin fraction was calculated according to the manufacturer's recommendations using the following formula: Hb = (A∗367,7)/(4,92) [formula] where Hb is total hemoglobin, A is optical density of the test sample. […]\nHemolysate was prepared by adding an anticoagulant, 3.8% solution of Na citrate diluted at 1:10, to freshly collected blood. […] The optical density of the samples was measured on a spectrophotometer at a wavelength of 443 nm against distilled water. […]\nConcentration of glycohemoglobin was expressed as µmols of fructose per g of hemoglobin (Glycated hemoglobin / Assay kit // Pliva-lachema diagnostica. - 2008. - 10003258.)."}, "[11]": {"tested_on": "collagen fibers", "test": "Morphometric analysis of liver fibrosis, Van Gieson staining, obesity model", "settings": "rats eating a standard diet, treated", "protocol": "To carry out a histochemical reaction to determine the level of liver fibrosis, Van Gieson's picro-fuchsin method of staining was used. To do this, the sections were first soaked with water and then re-stained with Bömer's hematoxylin for 3-4 minutes. The sections were then rinsed in distilled water and stained with Van Gierson's picro-fuchsin for 3 minutes. Once stained, the sections were rinsed in distilled water, dehydrated in 96% alcohol, cleared in dioxane and xylene, and enclosed in a balsam under a coverslip. […] All parameters were measured using ImageJ software."}, "[12]": {"settings": "C+zinc: control rats, standard diet"}, "[13]": {"settings": "DIO+zinc: diet-induced obesity rats"}},
  "note": "Where “and” joins values, the source holds several entries; their conditions need not be identical. Equal entries are not always repeated.",
  "data": [
    {"compound": "CC(=O)[O-].CC(=O)[O-].[Zn+2]", "note": "[Zn acetate, Zn acetate (Zn(CH3COO)2), reference compound]", "values": [
      {"measurement": "60 min (1 h after glucose administration)", "setting": "[1]; Table 2, blood glucose after glucose 3 g/kg", "result": "7,2 (2×) and 6,9 and 7,3 and 6,8"},
      {"measurement": "0 min (1 h after effector administration)", "setting": "[1]; Table 2, blood glucose before glucose load, fast overnight", "result": "4,6 and 5,2 (2×) and 4,9 and 5,1"},
      {"measurement": "accumulation of other metals (manganese, copper) in kidney and liver tissues", "setting": "[2]", "result": "within the same concentrations as in the control group of animals"},
      {"measurement": "accumulation of zinc in kidney and liver tissues", "setting": "[2]", "result": "significantly increased"}
    ]},
    {"compound": "Zinc asparaginate [^64Zne]", "values": [
      {"measurement": "Levels, Pro-inflammatory cytokines, IL-1", "setting": "[3]; C+^64Zne: control rats", "result": "3.5±0.7", "unit": "RU/mg protein"},
      {"measurement": "Levels, Pro-inflammatory cytokines, IL-1", "setting": "[3]; DIO+^64Zne: diet-induced obesity rats", "result": "4.2±0.4", "unit": "RU/mg protein"},
      {"measurement": "Levels, Anti-inflammatory cytokines, TGF", "setting": "[4]; C+^64Zne", "result": "4.1±0.4", "unit": "RU/mg protein"},
      {"measurement": "Levels, Anti-inflammatory cytokines, TGF", "setting": "[4]; DIO+^64Zne", "result": "5.7±0.3 # RU/mg protein"},
      {"measurement": "accumulation of other metals (manganese, copper) in kidney and liver tissues", "setting": "[2]", "result": "within the same concentrations as in the control group of animals"},
      {"measurement": "accumulation of zinc in kidney and liver tissues", "setting": "[2]", "result": "significantly increased"},
      {"measurement": "Levels, Pro-inflammatory cytokines, IFN-γ", "setting": "[5]; C+^64Zne", "result": "4.6±0.6", "unit": "RU/mg protein"},
      {"measurement": "Levels, Pro-inflammatory cytokines, IFN-γ", "setting": "[5]; DIO+^64Zne", "result": "4.1±1.2", "unit": "RU/mg protein"},
      {"measurement": "Levels, Pro-inflammatory cytokines, IL-6", "setting": "[6]; C+^64Zne", "result": "4.3±0.2", "unit": "RU/mg protein"},
      {"measurement": "Levels, Pro-inflammatory cytokines, IL-6", "setting": "[6]; DIO+^64Zne", "result": "5.1±0.4", "unit": "RU/mg protein"},
      {"measurement": "Amount of food consumed", "setting": "[7]; [12]", "result": 32, "unit": "g/day"},
      {"measurement": "Calorie content of food", "setting": "[7]; [12]", "result": 490, "unit": "kJ/day"},
      {"measurement": "Weight gain as of the end of the experiment", "setting": "[7]; [12]", "result": 59, "unit": "%"},
      {"measurement": "BMI", "setting": "[7]; C+zinc: control rats, standard diet, ^64Zne administration", "result": 0.59, "unit": "g/cm^2"},
      {"measurement": "Amount of food consumed", "setting": "[7]; [13]", "result": 29, "unit": "g/day"},
      {"measurement": "Calorie content of food", "setting": "[7]; [13]", "result": 823, "unit": "kJ/day"},
      {"measurement": "Weight gain as of the end of the experiment", "setting": "[7]; [13]", "result": 62, "unit": "%"},
      {"measurement": "BMI", "setting": "[7]; DIO+zinc: diet-induced obesity rats, ^64Zne 2.25 mg/ml, 2 ml intragastrically every third day, 10th week", "result": 0.65, "unit": "g/cm^2"},
      {"measurement": "Glucose", "setting": "[8]", "result": "20 ± 3", "unit": "mM"},
      {"measurement": "Levels, Anti-inflammatory cytokines, IL-4", "setting": "[9]; C+^64Zne", "result": "4.6±0.8", "unit": "RU/mg protein"},
      {"measurement": "Levels, Anti-inflammatory cytokines, IL-4", "setting": "[9]; DIO+^64Zne", "result": "5.6±1.6", "unit": "RU/mg protein"},
      {"measurement": "Glycated hemoglobin", "setting": "[10]", "result": "0,51 ± 0,05 µmol fructose/g Hb"},
      {"measurement": "increase in the area of deposition of collagen fibers", "setting": "[11]", "result": 2, "unit": "fold"}
    ]}
  ]
}
